# Patent US9844560B2, “Use of ginsenoside M1 for treating lupus nephritis” (priority 2014, dated 2017)
# Tests used:
# Assay type in all cases: in vivo, NZB/W F1 mice
# T cells in splenocytes = assay: T cell proliferation in splenocytes of ASLN mice (3H-methyl thymidine); conditions: anti-CD3 stimulated splenocytes, vs ASLN group, p<0.01, FIG. 6
# Protocol: (§1) An accelerated severe lupus nephritis (ASLN) mouse model was established in 8-week-old female NZB/W F1 mice by twice weekly intraperitoneal injection of lipopolysaccharide (LPS, 20 mg/kg body weight) (Sigma, NO, USA) as described in Shui et al., 2007 [51]. Two days after first dose of LPS for the ASLN induction, the mice were divided into two groups of more than 6 mice each and daily administrated with ginsenoside M1 or vehicle (normal saline) via oral gavage till mice sacrificed. 8-Week-old NZB/W F1 female mice (prior to onset of autoantibody production), injected with normal saline, were used as normal controls. All mice were killed at week 5 after disease induction. The tissue specimens of spleen, renal cortical tissue, blood, and urine were collected at the indicated times and stored appropriately before analysis.
# Splenocytes from the mice were prepared as described previously, then were cultured in triplicate in wells (2.5×10^5 cells/well) in 96-well flat-bottom microtiter plates previously coated overnight at 4° C. with 0.25 μg/ml anti-mouse CD3 (145-2C11) antibodies (BD Biosciences). After 48 h, the cultures were pulsed with […] of ^3H-methyl thymidine (Amersham Pharmacia Biotech, Piscataway, N.J.) and harvested 16-18 h later, and the incorporated ^3H-methyl thymidine was measured using a Top Count (Packard, PerkinElmer, Boston, Mass.) as described previously.
# anti-dsDNA antibodies = assay: Serum anti-dsDNA antibodies (ELISA) in ASLN mice; conditions: vs ASLN group, p<0.01, FIG. 3
# Protocol: as §1
# Serum levels of anti-dsDNA antibodies were measured using an anti-mouse dsDNA enzyme-linked immunosorbent assay (ELISA) kit (Alpha Diagnostic, TX, USA) according to the manufacturer's instructions. The absorbance at 450 nm was measured using an ELISA plate reader (Bio-Tek, VT, USA).
# [1] = test system: accelerated severe lupus nephritis (ASLN) mouse model; assay: Urine protein, hematuria and renal function in ASLN mouse model
# Protocol: as §1, with “analysis. Urine samples were collected in metabolic cages every week and urine protein levels were measured, and serum samples were collected to measure serum levels of blood urea nitrogen (BUN) and creatinine (Cr) as described previously (Ka, S. M. et al. Decoy receptor 3 ameliorates an autoimmune crescentic glomerulonephritis model in mice. J Am Soc Nephrol 18:2473-2485; 2007).” for “analysis.”
# renal ROS production = assay: Reactive oxygen species (superoxide anion, DHE labeling) in kidney of ASLN mice
# Protocol: as §1
# Kidney in situ superoxide anion production was determined by dihydroethidium (DHE) labeling. Fluorescent images were quantified by counting the percentage of positive nuclei in the total nuclei per kidney cross-section. Superoxide anion levels in serum and kidney tissues were measured as described previously and the results expressed as reactive luminescence units (RLU) per 15 min per milligram dry weight (i.e., RLU/15 min/mg dry weight).
# [2] = test system: Toll-like receptor (TLR)7 gene expression; assay: Real-time RT-PCR of renal cortex TLR7 mRNA in ASLN mice; conditions: normalized to GAPDH, vs ASLN group, p<0.01, FIG. 7
# Protocol: as §1
# Renal cortex RNA was extracted using TRIzol reagent (Invitrogen) according to the manufacturer's instructions, and real-time reverse transcription-polymerase chain reaction (RT-PCR) was used to measure Toll-like receptor (TLR)7 gene expression. Real-time quantification was performed using a Bio-Rad iCycler iQ system according to the manufacturer's instructions. Amplifications were normalized to the values for GAPDH using the 2^−ΔCt method.
# [3] = test system: serum inflammatory cytokines; assay: Serum cytokine detection (Cytometric Bead Array) in ASLN mice; conditions: vs ASLN group
# Protocol: as §1
# To detect the level of IFN-γ, MCP-1, IL-12 p70, IL-6, TNF-α and IL-10 in serum by using BD Cytometric Bead Array Mouse Inflammation kit (BD Biosciences), according to the standard protocol, followed by flow cytometry (BD Biosciences).
# [4] = test system: accelerated severe lupus nephritis (ASLN) mouse model; assay: Renal histopathology (H&E) in ASLN mouse model; conditions: ASLN mice, H&E light microscopy, FIG. 2
# Protocol: as §1, with “The tissue specimens of spleen, renal cortical tissue, blood, and urine were collected at the indicated times and stored appropriately before analysis.” left out
# Renal tissues were formalin-fixed, embedded in paraffin, and sections (3 μm) prepared and stained with hematoxylin and eosin (H&E) for renal histopathology as described previously. Quantitative analysis was performed by optical microscopy (Olympus BX51, Reflected Fluorescence System, Japan). The examination of renal pathology and scoring were performed in a blinded manner by a pathologist, and the severity of renal lesions was scored. The percentage of glomeruli showing proliferation, neutrophil infiltration, crescent formation, fibrinoid necrosis, and periglomerular inflammation was calculated from at least 100 randomly sampled glomeruli.
compound,measurement,setting,value
"CC(C)=CCC[C@](C)(O[C@@H]1OC(CO)[C@@H](O)[C@@H](O)C1O)[C@H]1CC[C@]2(C)C1[C@H](O)CC1[C@@]3(C)CC[C@H](O)C(C)(C)C3CC[C@]12C (stereo partly drawn) [ginsenoside M1, 20-O-β-D-glucopyranosyl-20(S)-protopanaxadiol]",proliferation of T cells in splenocytes,T cells in splenocytes,significant decreased
same,serum anti-dsDNA antibody level,anti-dsDNA antibodies,significantly decreased
same,serum level of BUN,"[1]; ASLN mice, daily oral gavage, vs ASLN group, p<0.05, FIG. 1C",significantly decreased
same,serum level of creatinine,"[1]; ASLN mice, daily oral gavage, vs ASLN group, p<0.05, FIG. 1D",significantly decreased
same,proteinuria (urine albumin/creatinine ratio),"[1]; ASLN mice, daily oral gavage, vs ASLN group, FIG. 1A",significantly decreased
same,hematuria,"[1]; ASLN mice, daily oral gavage, vs ASLN group, FIG. 1B",significantly decreased
same,development of lupus nephritis (overall conclusion),[1]; summary of the ASLN mouse study,effective in preventing development of lupus nephritis
same,renal ROS production (superoxide anion levels in renal tissues),"renal ROS production; vs ASLN group, p<0.01, FIG. 4A",significantly decreased
same,DHE fluorescence intensity (in situ ROS production in kidney),"renal ROS production; week 3, FIGS. 4B and 4C",very low
same,DHE fluorescence intensity (in situ ROS production in kidney),"renal ROS production; week 5, FIGS. 4B and 4C",very low
same,renal mRNA levels of TLR7,[2],significantly decreased
same,serum MCP-1,"[3]; p<0.005, FIG. 5B",significantly decreased
same,serum IL-12 p70,"[3]; p<0.005, FIG. 5C",significantly decreased
same,serum IL-6,"[3]; p<0.005, FIG. 5D",significantly decreased
same,serum TNFα,"[3]; p<0.005, FIG. 5E",significantly decreased
same,serum IL-10,"[3]; p<0.005, FIG. 5F",significantly decreased
same,serum IFN-γ,"[3]; p<0.01, FIG. 5A",significant decreased
same,"renal lesions (neutrocyte infiltration, crescent-like formation, periglomerular inflammation, tubular atrophy, proteinaceous casts, fibrinoid necrosis)","[4]; vs ASLN+vehicle, all p<0.005",greatly decreased
same,glomerular proliferation,[4],mild glomerular proliferation was present
